Data reported in PMC5131266 (Scientific Reports, 2016).

Legend:
MPER-TM1 = experiment: Cell-lysate ELISA, MPER-TM1; format: binding, HIV-1; details: 293T cell lysates, 20 nM IgG or Fab, normalized to 20 nM 17/9 IgG
[1] = tested on: simian immunodeficiency virus-HIV chimera; details: rhesus macaques; cited from earlier work
Source text: (§1) The 10E8 antibody achieves potent and broad HIV-1 neutralization by targeting the membrane-proximal external region of gp41 (MPER)[1][2]. […] The exceptionally high degree of conservation of the MPER sequence[4][5] justifies immunotherapeutic approaches based on the 10E8 antibody.

[2] = tested on: SIVs that infect chimpanzees and gorillas; details: cited from earlier work
Source text: as §1

HIV-1 = details: cited from earlier work
MPER-PDGFR = experiment: Cell-lysate ELISA, MPER-PDGFR; format: binding, HIV-1; details: 293T cell lysates, 20 nM IgG or Fab, normalized to 20 nM 17/9 IgG
[3] = molecular target: HIV-1 Env of JRCSF on pseudovirus particles (HIV-1 group M subtype B, isolate JRCSF, UniProt P20871); experiment: far-Western, overlay or dot blot; dot blot: decreasing amounts of PsV spotted on nitrocellulose, probed with Fab (0.2 ug/ml) in 5% milk in PBS, 1 h, room temperature; details: one partner purified

For “10E8 IgG: broadly neutralizing anti-HIV-1 gp41 MPER antibody 10E8, IgG”, the “binding to MPER-TM1” value (MPER-TM1) is given as “bind tightly”, the protection against infection [1] is given as “complete protection” and the neutralization potency [2] is given as “nanomolar potency”. For the same molecule, the “mean IC50” value (HIV-1) was “below 1 μg/mL” and the “binding to MPER-PDGFR” value (MPER-PDGFR) was “poor ligand”.

For “10E8 WT Fab: recombinant unmodified Fab of anti-HIV-1 gp41 MPER antibody 10E8”, the “binding to MPER-TM1” value (MPER-TM1) was “comparable degree of binding” and the “binding to MPER-PDGFR” value (MPER-PDGFR) was “poor ligand”.

B1: 10E8 Fab (Fab, V domains shown)
VH: EVQLVESGGGLVKPGGSLRLSCSASGFDFDNAWMTWVRQPPGKGLEWVGRITGPGEGWSVDYAAPVEGRFTISRLNSINFLYLEMNNLRMEDSGLYFCARTGKYYDFWSGYPPGEEYFQDWGRGTLVTVSS
VL: SYELTQETGVSVALGRTVTITCRGDSLRSHYASWYQKKPGQAPILLFYGKNNRPSGVPDRFSGSASGNRASLTISGAQAEDDAEYYCSSRDKSGSRLSVFGGGTKLTVL
notes: also called Fab 10E8; WT
B1: binds [3].
